Legend:
mesenchymal stem cells [1] = assay: Solid-phase culture of peripheral blood after administration of HMGB1 peptide 1-44 (earlier experiments of the inventors); type: in vivo; conditions: vs peripheral blood after administration of physiological saline
From the text: In addition, the colonies obtained as a result of culturing, on a solid phase, peripheral blood after administration of a peptide consisting of amino acid residues 1-44 of the human HMGB1 protein (hereinafter, HMGB1 peptide 1-44), which has an activity of mobilizing mesenchymal stem cells into peripheral blood, have been confirmed to have adherability to solid phase and self-renewal ability, and to be PDGFRα positive. They have also been confirmed to have a gene expression profile characteristic to mesenchymal stem cells, based on the results of clustering the transcriptome analysis data and performing gene ontology analysis.
Furthermore, it has been confirmed that the number of colonies obtained by solid-phase culture is larger in the peripheral blood after administration of HMGB1 peptide 1-44 than in the peripheral blood after administration of physiological saline.
Therefore, the colonies obtained as a result of culturing peripheral blood on a solid phase are mesenchymal stem cells, and it is considered that an increase in the number of colonies detected in a solid phase culture of peripheral blood indicates an increase in the number of mesenchymal stem cells in the peripheral blood.

[2] = tested on: atopic dermatitis model mice; assay: Efficacy in MC903-induced atopic dermatitis (AD) model mice; type: in vivo, C57BL/6 mice
From the text: MC903 (generic name: Calcipotriol) was used to induce atopic dermatitis (hereinafter, also referred to as “AD”) in mice. In addition, the peptide 1r10 (TFA salt) described in Example 1 was used as the test substance.
C57BL/6 mice (C57BL/6JJcl, 7-8 weeks old, male, microbial grade SPF) were obtained from Japan Claire Co., Ltd., acclimated in the animal breeding room for 5 days or more, and then subjected to the following experiments. An ethanol-adjusted MC903 solution was applied to the skin of the auricle of the mice at a dose of 2.25 nmol MC903/ear/once/day five times a week for 2 weeks (ten times in total) to induce atopic dermatitis (AD). This MC903-induced AD model is a model in which AD-like pathology can be reproduced in a short period of time (1-2 weeks) by artificially inducing the secretion of TSLP from epithelial cells, which is actually seen in AD patients, thereby eliciting a series of type 2 immune response cascades (Li M et al., Proc Natl Acad Sci USA. 2006; 103:11736-41).
They were then divided into the control group and the peptide administration group (n=7 in each group), while the groups were equalized based on the auricle thickness in consideration of the difference in the severity of inflammation between individuals. For peptide administration, the solution of peptide 1r10 adjusted to 0.3 mg/mL with physiological saline was injected into the tail vein at a volume of 5 mL/kg (peptide dose of 1.5 mg/kg) twice in total, once on the grouping day (Day 15) and once during the following 4 days (Day 16 to Day 19). For the control group a solution of bovine serum albumin (BSA) adjusted to 0.3 mg/mL with physiological saline was injected into the tail vein at a volume of 5 mL/kg (BSA dose of 1.5 mg/kg) twice in total, once on the grouping day (Day 15) and once during the following 4 days (Day 16 to Day 19).
During the peptide administration period (Day 15 to Day 19), ear swellings were measured daily to determine edema. Scaling, which is the main symptom of AD, was determined by photography (three times a week) using a digital camera (E-M1 II; Olympus) from a fixed base at a height of 13-14 cm from the auricle.
On the 4th day (Day 19) after the start of peptide administration, mice were placed under the influence of isoflurane anesthesia and euthanized with cervical spine dislocation. The skin at auricular inflammation site and its surroundings was quickly excised and collected while on ice to prevent protein denaturation of the sample. After removing excess hair and skin with tweezers, the collected auricular skin was immersed in 10% formalin and fixed at 4° C. overnight while shaking on ice using a shaker. After fixation, the skin was thoroughly washed with phosphate buffered saline (PBS) and trimmed, and then a paraffin block was made using an automatic embedding device (Excelsior ES; Thermo Scientific) with attention to the tissue polarity in the dorsoventral axis/left-right axis specific to the skin). Then, it was sliced (5 μm thick) with a rotary microtome (HM 325; Thermo Scientific), fixed on a slide glass, and subjected to various staining. As pathological analysis, skin thickness and infiltration of immune cells were evaluated by histochemical staining and fluorescent immunostaining, respectively.
To quantitatively evaluate the healing condition of the site of inflammation, hematoxylin-eosin (HE) staining of the paraffin thin sections (5 μm thick) of skin tissue generated as described above was performed to measure the dermal thickness. Specifically, three sections were prepared for each individual, and each section was photographed with a microscope (Keyence BZ-X710) at one site each of the center of inflammation, head side, and tail side (that is, a total of 9 sites were photographed per individual). […]

[3] = tested on: inflammatory bowel disease (IBD) model mice; assay: Efficacy in DSS-induced inflammatory bowel disease (IBD) model mice; type: in vivo, BALB/c mice
Description: Dextran sodium sulfate (DSS) (molecular weight 36,000 to 50,000, manufactured by MP Biomedicals, Product No. 160110) was dissolved in purified water to prepare a 2.5% (w/v) DSS aqueous solution. In addition, the peptide 1r10 (TFA salt) described in Example 1 was used as the test substance.
BALB/c mice (9 weeks old, male) were allowed to drink the 2.5% DSS aqueous solution freely for 7 days to induce colitis. After that, the drinking was changed from DSS to tap water, and the large intestine was collected 3 days later (10 days after the start of drinking the DSS aqueous solution).
The IBD model mice prepared as described above were divided into the peptide 1r10 administration group (n=8) and the control group (n=8). Peptide administration was carried out by injecting into the tail vein, the peptide 1r10 solution adjusted to a concentration of 0.5 mg/mL using physiological saline as a solvent at an amount of 10 mL/kg on Days 1, 4, 7, 8 and 9 after the start of drinking the DSS aqueous solution (peptide dose of 5 mg/kg). The control group was injected with physiological saline solution at a dose of 10 mL/kg into the tail vein on Days 1, 4, 7, 8 and 9 after the start of drinking the DSS aqueous solution.
For 10 days from the start of drinking the DSS aqueous solution, the mice were weighed and observed for the symptoms (stool condition and bleeding) every day except Saturdays, Sundays, and holidays, and the degree of symptoms was evaluated by calculating the DAI (disease activity index) score. The DAI score was calculated by scoring the weight loss rate, stool condition, and stool bleeding as shown in the table below, and summing the scores of these three items. The scoring criteria were partly based on the method of Li et al. (PLoS One. 2015 Dec. 7; 10 (12): e0144101).
In addition, the length of the large intestine (from the colon to the rectum) collected 10 days after the start of drinking DSS was measured using a digital caliper.

mesenchymal stem cells [4] = assay: Colony assay of peripheral blood collected after peptide administration (mobilization of mesenchymal stem cells into peripheral blood); type: in vivo, C57BL/6J mice; conditions: 4 mg/kg tail vein; blood collected 14 hours after administration; 10 days culture; colonies of 50 or more cells; vs physiological saline
Description: C57BL/6J mice (8 weeks old, male, body weight 25 g) were prepared and divided into a group administered with the artificial sequence peptide […] and a control group. The peptide was administered by injecting into the tail vein, a solution of peptide 1r10 adjusted to a concentration of […] using physiological saline as a solvent in an amount of 100 μL/animal (4 mg/kg dose of peptide). For the control group, physiological saline was injected into the tail vein in an amount of 100 μL/animal. […]
The supernatant (sample containing peripheral blood-derived cells) obtained by the above procedure was seeded on collagen I-coated 6-well plates (Corning, Cat No. 356400), and cultured for 10 days under the conditions of 37° C., 5% CO2 and 5% O2, using a medium containing Expansion Medium prepared using the MesenCult Expansion Kit (STEMCELL Technologies, Cat No. ST-05513) according to the manual of the kit, 1% L-glutamine (Nacalai Tesque Inc.), 10 μM ROCK inhibitor (Y27632, Tocris Bioscience) and 1% penicillin/streptomycin (Nacalai Tesque Inc.) (all numerical values are final concentrations). […] On the 10th day of culture, cells on the plates were stained with a Differential Quik Stain Kit (Sysmex Corporation, Cat No. 16920), and the number of colonies containing 50 or more cells was counted. […]

[5] = tested on: cerebral infarction model rat; assay: Efficacy in cerebral infarction model rat (right MCA occlusion); type: in vivo, Crl:CD (SD) rats; conditions: 2 mg/kg tail vein at 105 minutes and 24 hours after right MCA occlusion; 48 hours after occlusion; p<0.01 vs control 34.1±1.1%
From the text: Crl:CD (SD) rats (7 weeks old, male) were obtained from Charles River Laboratories, Japan, and after 6 days of acclimation, they were divided into the control group (n=8) and the peptide-administered group (n=8). On the following day of grouping, the rats were fixed in the supine position under 2% isoflurane inhalation anesthesia (anesthesia background: laughing gas:oxygen=7:3). To regulate body temperature during surgery, a thermometer probe connected to a digital thermometer was inserted into the rectum, and changes in the rectal temperature before and after surgery were monitored. […]
Forty-eight hours after the right MCA occlusion, the animals were decapitated under anesthesia with sodium pentobarbital (50 mg/kg, intraperitoneal administration), and the entire brain was excised to prepare brain sections with a thickness of 2 mm. […] The resulting photographs were subjected to image analysis to obtain actual measurements of the cerebral infarction area and cross-sectional area of the brain, and the cerebral infarct volume and the total brain volume from 4 mm anterior to bregma to 6 mm posterior to bregma were calculated using the calculation formula below. In addition, the cerebral infarction volume ratio was calculated from the cerebral infarction volume and the total volume of the brain (cerebral infarction volume ratio (%)=cerebral infarction volume/total brain volume×100).

[6] = 5 mg/kg tail vein, 8 to 10 days after the start of drinking DSS, vs control group

| Substance | number of colonies obtained by solid-phase culture of peripheral blood (mesenchymal stem cells [1]) | dermis thickness ([2]; 1.5 mg/kg tail vein twice, 4th day (Day 19) after start of administration, HE staining, vs control group) | scaling in the auricle ([2]; 1.5 mg/kg tail vein twice, 4 days after start of peptide administration, vs control group (BSA)) | auricular thickness (edema) ([2]; 1.5 mg/kg tail vein twice, Day 15 to Day 19, vs control group (BSA)) | number of CD45-positive cells in auricular skin sections ([2]; 1.5 mg/kg tail vein twice, Day 19, per high-power field (400×), vs control group) | changes in mouse body weight during the period of the study ([2]; Day 15 to Day 19, between the groups, p>0.05, repeated one-way ANOVA) | dermis thickness ([2]; dose of 0.5 mg/kg, vs control group, data not shown) | body weight 10 days after the start of drinking the DSS aqueous solution ([3]; 5 mg/kg tail vein on Days 1, 4, 7, 8 and 9, Day 10) | changes in mouse body weight (degree of decrease) ([3]; 5 mg/kg tail vein on Days 1, 4, 7, 8 and 9 after start of drinking DSS, vs control group (saline)) | DAI (disease activity index) score [3, 6] | stool score (sum of stool condition score and bleeding score) [3, 6] | colon length ([3]; 5 mg/kg tail vein, ten days after the start of drinking DSS, vs control group) | number of colonies obtained on the plate by culturing the peripheral blood-derived cells (mesenchymal stem cells [4]) | cerebral infarction volume ratio (mean±standard error) [5] [%] |
| --- | --- | --- | --- | --- | --- | --- | --- | --- | --- | --- | --- | --- | --- | --- |
| HMGB1 peptide 1-44: peptide consisting of amino acid residues 1-44 of the human HMGB1 protein, which has an activity of mobilizing mesenchymal stem cells into peripheral blood (MGKGDPKKPRGKMSSYAFFVQTCREEHKKKHPDASVNFSEFSKK; UniProt P09429 1-44, looked up, fragment) | larger |  |  |  |  |  |  |  |  |  |  |  |  |  |
| peptide 1r10: artificial sequence peptide consisting of the amino acid sequence of SEQ ID NO: 1, chemically synthesized (IMWLCQYFFQCHKCAVKKKTWKEKKDRRHP) |  | statistically significant decrease | reduction of scaling | statistically significant reduction | statistically significant decrease | not significantly different | statistically significant decrease | tendency to recover body weight | slower | lower | lower | longer | larger | 27.2±1.2 |

Reference: patent US20220009976A1, “Peptide Possessing Mesenchymal-Stem-Cell Mobilizing Activity” (StemRIM Inc., priority 2018, published 2022)
